Columns and labels:
[1] = target: T1, DPD (Homo sapiens, UniProt Q12882); settings: in vivo; cited from earlier work
T1 construct: More than 80% of an administered dose of 5-FU is eliminated by catabolism through DPD
T1 sequence (Q12882 4-1025): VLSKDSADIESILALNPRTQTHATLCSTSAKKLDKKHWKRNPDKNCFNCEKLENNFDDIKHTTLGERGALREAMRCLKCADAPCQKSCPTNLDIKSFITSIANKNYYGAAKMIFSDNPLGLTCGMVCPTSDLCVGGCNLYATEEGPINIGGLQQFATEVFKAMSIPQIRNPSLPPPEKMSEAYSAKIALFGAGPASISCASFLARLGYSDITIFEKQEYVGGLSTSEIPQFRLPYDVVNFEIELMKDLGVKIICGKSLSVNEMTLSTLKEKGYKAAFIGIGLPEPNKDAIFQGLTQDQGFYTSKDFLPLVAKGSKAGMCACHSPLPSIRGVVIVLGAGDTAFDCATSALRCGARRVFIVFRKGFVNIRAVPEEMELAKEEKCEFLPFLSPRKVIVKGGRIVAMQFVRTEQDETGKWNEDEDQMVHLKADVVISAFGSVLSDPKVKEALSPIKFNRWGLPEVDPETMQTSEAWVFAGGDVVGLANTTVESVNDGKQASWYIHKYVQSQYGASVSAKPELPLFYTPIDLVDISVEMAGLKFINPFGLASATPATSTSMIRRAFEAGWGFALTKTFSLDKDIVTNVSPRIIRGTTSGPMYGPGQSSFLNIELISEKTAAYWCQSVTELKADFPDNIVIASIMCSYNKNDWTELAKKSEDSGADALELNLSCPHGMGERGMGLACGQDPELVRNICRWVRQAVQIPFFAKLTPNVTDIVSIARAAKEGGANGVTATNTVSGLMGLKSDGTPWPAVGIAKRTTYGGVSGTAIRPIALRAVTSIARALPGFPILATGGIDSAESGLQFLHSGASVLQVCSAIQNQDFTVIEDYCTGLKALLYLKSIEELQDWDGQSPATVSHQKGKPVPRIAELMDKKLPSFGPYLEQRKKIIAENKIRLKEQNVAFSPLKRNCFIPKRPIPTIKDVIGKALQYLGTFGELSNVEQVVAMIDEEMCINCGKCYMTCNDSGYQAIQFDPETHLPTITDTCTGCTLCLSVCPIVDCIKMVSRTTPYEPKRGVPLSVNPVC

[2] = phase II study, advanced or metastatic pancreatic cancer; cited from earlier work

SMILES: O=c1[nH]cc(F)c(=O)[nH]1 [5-FU, 5-Fluorouracil]
- administered dose eliminated by catabolism through DPD [1]: More than 80%

SMILES: CCCCCOC(=O)Nc1nc(=O)n([C@@H]2O[C@H](C)[C@@H](O)[C@H]2O)cc1F [capecitabine]
- side effects (human, in vivo): development of Xeloda-related side effects
- Median survival [2]: 182 days

SMILES: Nc1ccn([C@@H]2O[C@H](CO)[C@@H](O)C2(F)F)c(=O)n1 [gemcitabine]
- disease progression (Case Report #3): rapidly progressing metastasis
- QOL (Case Report #3, T4NxM1): declining QOL

From patent US20130202719A1, “STABILIZED CHLORITE SOLUTIONS IN COMBINATION WITH FLUROPYRIMIDINES FOR CANCER” (NUVO RESEARCH AG, priority 2005, published 2013)
